# Data as given in patent US10912814B2, “Combination formulation of three antiviral compounds” (priority 2016, dated 2021).
# Columns and labels:
# HCV RNA = test: Emax PK/PD modeling of sofosbuvir exposure vs HCV RNA change from baseline; assay type: in vivo; details: 400 mg sofosbuvir dose
# Experimental: The sofosbuvir dose selected for the tablet formulation is 400 mg once daily. Support for the 400 mg sofosbuvir dose can be derived from Emax PK/PD modeling with early virological and human exposure data which also supports the selection of a 400 mg sofosbuvir dose over others tested.
# The mean sofosbuvir major metabolite AUCtau for the 400 mg sofosbuvir dose is associated with approximately 77% of the maximal HCV RNA change from baseline achievable as determined by this model, a value which is on the cusp of the plateau of the exposure-response sigmoidal curve. In a sigmoidal Emax model, there is a relatively linear exposure-response relationship in the 20 to 80% maximal effect range. Therefore, given that sofosbuvir exposure with 200 mg tablets appears dose-proportional with single doses up to 1200 mg, doses below 400 mg are expected to yield considerable reductions in the magnitude of HCV RNA change from baseline.
# [1] = Tablet dissolution in 50 mM sodium acetate buffer pH 5.0 with 2.0% w/v Polysorbate 80 and 0.001% w/v BHT, 75 rpm, 900 mL, 37° C., USP Type II; assay type: physicochemical
# Experimental: FIGS. 10-12 depict additional dissolution profiles for the sofosbuvir/velpatasvir SSD/voxilaprevir SSD tablets having the formulation described in Table 13 and which were used in phase 1, 2, and 3 clinical studies, where the dissolution testing was conducted at pH 5.0 acetate buffer containing 2.0% w/v polysorbate 80. Four batches of the sofosbuvir/velpatasvir SSD/voxilaprevir SSD tablets were tested, with Batch A manufactured at 100 kg and Batches B, C and D manufactured at 145 kg. All other aspects of the formulation and manufacturing process were otherwise equivalent. The four batches were packed in the same commercial configuration: 28 count, 100 mL HPDE bottle with 1 g silica gel desiccant canister and a polyester fiber coil. […] Moreover, for Batch A, the amount dissolved at 30 min remained between 98 and 100% for sofosbuvir, between 90 and 92% for velpatasvir SSD, and between 89 and 93% for voxilaprevir SSD. […] For Batch D, the amount dissolved at 30 min remained at 100% for sofosbuvir, between 90 and 91% for velpatasvir SSD, and between 89 and 91% for voxilaprevir SSD. Release of velpatasvir SSD and voxilaprevir SSD from the sofosbuvir/velpatasvir SSD/voxilaprevir SSD tablets associated with all four Batches was complete after 60 minutes.
# BCS classification = assay type: physicochemical
smiles,measurement,setting,value
"CC(C)OC(=O)C(C)N[P@](=O)(OC[C@H]1O[C@@H](n2ccc(=O)[nH]c2=O)[C@](C)(F)[C@@H]1O)Oc1ccccc1 (stereo in doubt) [Sofosbuvir, (S)-isopropyl 2-(((S)-(((2R,3R,4R,5R)-5-(2,4-dioxo-3,4-dihydropyrimidin-1(2H)-yl)-4-fluoro-3-hydroxy-4-methyltetrahydrofuran-2-yl)methoxy)(phenoxy)phosphoryl)amino)propanoate]",fraction of the maximal HCV RNA change from baseline achievable (Emax model) associated with mean major metabolite AUCtau,HCV RNA,approximately 77%
same,Dissolved at 30 min (%),"[1]; Batch C tablets, closed 1 g desiccant, 30° C./75% RH, 6 months",99%
same,Dissolved at 30 min (%),"[1]; Batch C tablets, closed 1 g desiccant, 40° C./75% RH, 1 month",100%
same,Dissolved at 30 min (%),"[1]; Batch C tablets, closed 1 g desiccant, Initial, time 0",99%
same,Dissolved at 30 min (%),"[1]; tablets Batch A, 30° C./75% RH, 6 mo",100%
same,Dissolved at 30 min (%),"[1]; tablets Batch A, 40° C./75% RH, 3 mo",99%
same,Dissolved at 30 min (%),"[1]; tablets Batch A, Initial, 0 mo",98%
same,Dissolved at 30 min (%),"[1]; tablets Batch B, 40° C./75% RH, 6 mo",98%
same,amount dissolved at 30 min,[1]; tablets Batch D,100%
same,Dissolved at 30 min (%),"[1]; tablets Batch D, 40° C./75% RH, 1 mo",100%
same,"aqueous solubility, pH dependence",BCS classification,high and pH-independent aqueous solubility
